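How tested: cells in 96-well plates exposed to compound for 48 hours at five concentrations. GI50 marks 50% less growth.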 Calls of active or inactive are those of the source. Cut-off read from the data, not from the text of the source: active = GI50 up to about 1.1 µM and inactive = higher.
Legend:
Test in all cases: NCI-60 cell line screen, 48 h
[1] = tested on: SF-268
[2] = tested on: RXF 393
[3] = tested on: DMS-114
[4] = tested on: U-251
[5] = tested on: NCI-H460
[6] = tested on: ACHN
[7] = tested on: NCI-H23
[8] = tested on: HOP-18
[9] = tested on: EKVX
[10] = tested on: UACC-257
[11] = tested on: A549
[12] = tested on: SW-620
[13] = tested on: HCC 2998
[14] = tested on: SNB-75
[15] = tested on: HCT-15
[16] = tested on: SF-295
[17] = tested on: HOP-62
[18] = tested on: CAKI-1
[19] = tested on: HCT-116
[20] = tested on: LOX IMVI
[21] = tested on: M14
[22] = tested on: HL-60
[23] = tested on: CCRF-CEM
[24] = tested on: SN12C
[25] = tested on: HOP-92
[26] = tested on: LXFL 529
[27] = tested on: SK-MEL-28
[28] = tested on: DLD-1
[29] = tested on: SNB-78
[30] = tested on: SNB-19
[31] = tested on: A498
[32] = tested on: Malme-3M
[33] = tested on: NCI-H522
[34] = tested on: M19-MEL
[35] = tested on: OVCAR-8
[36] = tested on: SK-MEL-5
[37] = tested on: KM-20L2
[38] = tested on: COLO 205
[39] = tested on: SF-539
[40] = tested on: SK-OV-3
[41] = tested on: RXF 631
[42] = tested on: K562
[43] = tested on: HT-29
[44] = tested on: 786-0
[45] = tested on: RPMI-8226
[46] = tested on: TK-10
[47] = tested on: OVCAR-5
[48] = tested on: IGROV-1
[49] = tested on: NCI-H226
[50] = tested on: SR
[51] = tested on: OVCAR-3
[52] = tested on: KM12
[53] = tested on: SK-MEL-2
[54] = tested on: UACC-62
[55] = tested on: UO-31
[56] = tested on: MOLT-4
[57] = tested on: XF498
[58] = tested on: DMS-273
[59] = tested on: OVCAR-4

For COc1ccc(/C(C)=N/NC(N)=S)c(OC)c1, the GI50 [1] was > 100 µM (inactive), the GI50 [2] was > 100 µM (inactive) and the GI50 [3] was 97.1 µM (inactive). The GI50 [4] was 49.1 µM (inactive), the GI50 [5] was > 100 µM (inactive) and the GI50 [6] was > 100 µM (inactive). The GI50 [7] was > 100 µM (inactive), the GI50 [8] was > 100 µM (inactive) and the GI50 [9] was 63.4 µM (inactive). For the same compound, the GI50 [10] was > 100 µM (inactive), the GI50 [11] was > 100 µM (inactive) and the GI50 [12] was 43.3 µM (inactive). For the same compound, the GI50 [13] was > 100 µM (inactive), the GI50 [14] was > 100 µM (inactive) and the GI50 [15] was over 100 µM. The GI50 [16] was > 100 µM (inactive), the GI50 [17] was > 100 µM (inactive) and the GI50 [18] was > 100 µM (inactive). For the same compound, the GI50 [19] was > 100 µM (inactive), the GI50 [20] was > 100 µM (inactive) and the GI50 [21] was > 100 µM (inactive). The GI50 [22] was 51.3 µM (inactive), the GI50 [23] was > 100 µM (inactive) and the GI50 [24] was > 100 µM (inactive). The GI50 [25] was > 100 µM (inactive), the GI50 [26] was > 100 µM (inactive) and the GI50 [27] was > 100 µM (inactive). The GI50 [28] was > 100 µM (inactive), the GI50 [29] was > 100 µM (inactive) and the GI50 [30] was > 100 µM (inactive). The GI50 [31] was > 100 µM (inactive), the GI50 [32] was > 100 µM (inactive) and the GI50 [33] was 18.4 µM (inactive). For the same compound, the GI50 [34] was > 100 µM (inactive), the GI50 [35] was > 100 µM (inactive) and the GI50 [36] was > 100 µM (inactive). For the same compound, the GI50 [37] was > 100 µM (inactive), the GI50 [38] was > 100 µM (inactive) and the GI50 [39] was > 100 µM (inactive). For the same compound, the GI50 [40] was > 100 µM (inactive), the GI50 [41] was > 100 µM (inactive) and the GI50 [42] was > 100 µM (inactive). The GI50 [43] was > 100 µM (inactive), the GI50 [44] was > 100 µM (inactive) and the GI50 [45] was > 100 µM (inactive). For the same compound, the GI50 [46] was > 100 µM (inactive), the GI50 [47] was > 100 µM (inactive) and the GI50 [48] was > 100 µM (inactive). The GI50 [49] was > 100 µM (inactive), the GI50 [50] was > 100 µM (inactive) and the GI50 [51] was > 100 µM (inactive). For the same compound, the GI50 [52] was > 100 µM (inactive), the GI50 [53] was > 100 µM (inactive) and the GI50 [54] was > 100 µM (inactive). The GI50 [55] was > 100 µM (inactive), the GI50 [56] was > 100 µM (inactive) and the GI50 [57] was > 100 µM (inactive).

With O=C(O)C1C2CC3CC2CC31 (stereo not drawn) the GI50 [1] was > 100 µM (inactive), the GI50 [2] was > 100 µM (inactive) and the GI50 [3] was > 100 µM (inactive). For the same compound, the GI50 [4] was > 100 µM (inactive), the GI50 [5] was > 100 µM (inactive) and the GI50 [6] was > 100 µM (inactive). For the same compound, the GI50 [7] was > 100 µM (inactive), the GI50 [9] was > 100 µM (inactive) and the GI50 [10] was > 100 µM (inactive). The GI50 [11] was > 100 µM (inactive), the GI50 [12] was > 100 µM (inactive) and the GI50 [14] was > 100 µM (inactive). The GI50 [15] was over 100 µM, the GI50 [16] was > 100 µM (inactive) and the GI50 [17] was > 100 µM (inactive). The GI50 [18] was > 100 µM (inactive), the GI50 [19] was > 100 µM (inactive) and the GI50 [20] was > 100 µM (inactive). The GI50 [21] was > 100 µM (inactive), the GI50 [22] was > 100 µM (inactive) and the GI50 [23] was > 100 µM (inactive). The GI50 [24] was > 100 µM (inactive), the GI50 [25] was > 100 µM (inactive) and the GI50 [26] was > 100 µM (inactive). The GI50 [27] was > 100 µM (inactive), the GI50 [29] was > 100 µM (inactive) and the GI50 [30] was > 100 µM (inactive). The GI50 [31] was > 100 µM (inactive), the GI50 [58] was > 100 µM (inactive) and the GI50 [32] was > 100 µM (inactive). For the same compound, the GI50 [33] was > 100 µM (inactive), the GI50 [35] was > 100 µM (inactive) and the GI50 [59] was > 100 µM (inactive). The GI50 [36] was > 100 µM (inactive), the GI50 [38] was > 100 µM (inactive) and the GI50 [39] was > 100 µM (inactive). For the same compound, the GI50 [40] was > 100 µM (inactive), the GI50 [41] was > 100 µM (inactive) and the GI50 [42] was > 100 µM (inactive). The GI50 [44] was > 100 µM (inactive), the GI50 [45] was > 100 µM (inactive) and the GI50 [46] was > 100 µM (inactive). The GI50 [47] was > 100 µM (inactive), the GI50 [48] was > 100 µM (inactive) and the GI50 [51] was > 100 µM (inactive). For the same compound, the GI50 [52] was > 100 µM (inactive), the GI50 [53] was > 100 µM (inactive) and the GI50 [54] was > 100 µM (inactive). The GI50 [55] was > 100 µM (inactive), the GI50 [56] was > 100 µM (inactive) and the GI50 [57] was > 100 µM (inactive).

From ChEMBL document CHEMBL1201862, “PubChem BioAssay data set” (2004)
